Key:
[1] = molecular target: recombinant BACE1 protein (Homo sapiens, UniProt P56817); experiment: Biochemical FRET based assay; conditions: recombinant BACE1 1 μg/ml, 120 minutes at room temperature, pH 5.0; for IC50: read-out: Biochemical FRET based assay pIC50 (converted)
Outline: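 Proteolysis was read as the rise in donor fluorescence (320 nm excitation, 405 nm emission) from T0 to T120, expressed in RFU. The reaction ran 120 minutes at room temperature at pH 5.0 in citrate buffer with 4% DMSO, using […] quenched Swedish APP peptide and 1 μg/ml BACE1.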

Abeta total = experiment: Cellular αLisa assay in SKNBE2 cells, Abeta total; assay type: cell-based, human; conditions: incubated for 18 hours; for IC50: Homo sapiens, SKNBE2, 18 h, read-out: Cellular αLisa assay in SKNBE2 cells Abetatotal pIC50 (converted)
Outline: (§1)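 Secreted Abeta levels were measured by sandwich αLisa, pairing biotin-AbN/25 donor beads with Ab4G8 acceptor beads for total Abeta or cAb42/26 for Abeta 1-42, read at 615 nm after 650 nm excitation following 1 hour. Cells were SKNBE2 expressing wild-type hAPP695, exposed to compound for 18 hours.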

Abeta 1-42 = experiment: Cellular αLisa assay in SKNBE2 cells, Abeta 1-42; assay type: cell-based, human; conditions: incubated for 18 hours; for IC50: Homo sapiens, SKNBE2, 18 h, read-out: Cellular αLisa assay in SKNBE2 cells Abeta 42 pIC50 (converted)
Outline: as §1

Aβ42 = experiment: Demonstration of in vivo efficacy, brain Aβ42 lowering (ELISA); conditions: mouse brain, 30 mpk
From the text: (§2) To determine whether acute administration of an Aβ42 peptide lowering agent would reduce Aβ peptide levels in vivo, non-transgenic rodents, e.g. mice or rats were used. Animals treated with the Aβ peptide lowering agent were examined and compared to those untreated or treated with vehicle and brain levels of soluble Aβ42 and total Aβ were quantitated by standard techniques, for example, using ELISA.
(§3) A typical protocol for measuring Aβ42 lowering in vivo is shown but it is only one of many variations that could be used to optimize the levels of detectable Aβ. For example, Aβ peptide lowering compounds were formulated in 20% hydroxypropyl 3 cyclodextrin. The Aβ peptide lowering agents were administered as a single oral dose (p.o.) or a single subcutaneous dose (s.c.) to overnight fasted animals. After a certain time, usually 2 or 4 h (as indicated in Table 19), the animals were sacrificed and Aβ42 levels were analysed.
(§4) Blood was collected by decapitation and exsanguinations in EDTA-treated collection tubes. Blood was centrifuged at 1900 g for 10 minutes (min) at 4° C. and the plasma recovered and flash frozen for later analysis. The brain was removed from the cranium and hindbrain. The cerebellum was removed and the left and right hemisphere were separated. The left hemisphere was stored at −18° C. for quantitative analysis of test compound levels. The right hemisphere was rinsed with phosphate-buffered saline (PBS) buffer and immediately frozen on dry ice and stored at −80° C. until homogenization for biochemical assays.
(§5) Mouse brains from non-transgenic animals were resuspended in 8 volumes of 0.4% DEA (diethylamine)/50 mM NaCl containing protease inhibitors (Roche-11873580001 or 04693159001) per gram of tissue, e.g. for 0.158 g brain, add 1.264 ml of 0.4% DEA. All samples were homogenized in the FastPrep-24 system (MP Biomedicals) using lysing matrix D (MPBio #6913-100) at 6 m/s for 20 seconds. Homogenates were centrifuged at 221.300×g for 50 min. The resulting high speed supernatants were then transferred to fresh eppendorf tubes. Nine parts of supernatant were neutralized with 1 part 0.5 M Tris-HCl pH 6.8 and used to quantify Aβtotal and Aβ42.
(§6) To quantify the amount of Aβtotal and Aβ42 in the soluble fraction of the brain homogenates, Enzyme-Linked-Immunosorbent-Assays were used. Briefly, the standards (a dilution of synthetic Aβ1-40 and Aβ1-42, Bachem) were prepared in 1.5 ml Eppendorf tube in Ultraculture, with final concentrations ranging from 10000 to 0.3 pg/ml. The samples and standards were co-incubated with HRPO-labelled N-terminal antibody for Aβ42 detection and with the biotinylated mid-domain antibody 4G8 for Aβtotal detection. […] The plate was allowed to incubate overnight at 4° C. in order to allow formation of the antibody-amyloid complex. Following this incubation and subsequent wash steps the ELISA for Aβ42 quantification was finished by addition of Quanta Blu fluorogenic peroxidase substrate according to the manufacturer's instructions (Pierce Corp., Rockford, Ill.). A reading was performed after 10 to 15 min (excitation 320 nm/emission 420 nm).

Aβtotal = experiment: Demonstration of in vivo efficacy, brain Aβtotal lowering (ELISA); conditions: mouse brain, 30 mpk
From the text: as §2, §3, §4, §5, §6
For Aβtotal detection, a Streptavidine-Peroxidase-Conjugate was added, followed 60 min later by an additional wash step and addition of Quanta Blu fluorogenic peroxidase substrate according to the manufacturer's instructions (Pierce Corp., Rockford, Ill.). A reading was performed after 10 to 15 min (excitation 320 nm/emission 420 nm).

P-gp = molecular target: T1, P-gp (Homo sapiens, UniProt P08183); experiment: Transepithelial transport of test compounds through LLC-MDR1 monolayers; assay type: in vitro ADME; conditions: for Papp A→B at 120 min, 1 μM: read-out: A to B (Apparent Permeability, Papp); for Papp B→A at 120 min, 1 μM: read-out: B to A (Apparent Permeability, Papp)
T1 construct: expressed in transfected cells; host or cells: LLC-PK1 cells stably transduced with MDR1 (LLC-MDR1)
T1 sequence (P08183 whole entry): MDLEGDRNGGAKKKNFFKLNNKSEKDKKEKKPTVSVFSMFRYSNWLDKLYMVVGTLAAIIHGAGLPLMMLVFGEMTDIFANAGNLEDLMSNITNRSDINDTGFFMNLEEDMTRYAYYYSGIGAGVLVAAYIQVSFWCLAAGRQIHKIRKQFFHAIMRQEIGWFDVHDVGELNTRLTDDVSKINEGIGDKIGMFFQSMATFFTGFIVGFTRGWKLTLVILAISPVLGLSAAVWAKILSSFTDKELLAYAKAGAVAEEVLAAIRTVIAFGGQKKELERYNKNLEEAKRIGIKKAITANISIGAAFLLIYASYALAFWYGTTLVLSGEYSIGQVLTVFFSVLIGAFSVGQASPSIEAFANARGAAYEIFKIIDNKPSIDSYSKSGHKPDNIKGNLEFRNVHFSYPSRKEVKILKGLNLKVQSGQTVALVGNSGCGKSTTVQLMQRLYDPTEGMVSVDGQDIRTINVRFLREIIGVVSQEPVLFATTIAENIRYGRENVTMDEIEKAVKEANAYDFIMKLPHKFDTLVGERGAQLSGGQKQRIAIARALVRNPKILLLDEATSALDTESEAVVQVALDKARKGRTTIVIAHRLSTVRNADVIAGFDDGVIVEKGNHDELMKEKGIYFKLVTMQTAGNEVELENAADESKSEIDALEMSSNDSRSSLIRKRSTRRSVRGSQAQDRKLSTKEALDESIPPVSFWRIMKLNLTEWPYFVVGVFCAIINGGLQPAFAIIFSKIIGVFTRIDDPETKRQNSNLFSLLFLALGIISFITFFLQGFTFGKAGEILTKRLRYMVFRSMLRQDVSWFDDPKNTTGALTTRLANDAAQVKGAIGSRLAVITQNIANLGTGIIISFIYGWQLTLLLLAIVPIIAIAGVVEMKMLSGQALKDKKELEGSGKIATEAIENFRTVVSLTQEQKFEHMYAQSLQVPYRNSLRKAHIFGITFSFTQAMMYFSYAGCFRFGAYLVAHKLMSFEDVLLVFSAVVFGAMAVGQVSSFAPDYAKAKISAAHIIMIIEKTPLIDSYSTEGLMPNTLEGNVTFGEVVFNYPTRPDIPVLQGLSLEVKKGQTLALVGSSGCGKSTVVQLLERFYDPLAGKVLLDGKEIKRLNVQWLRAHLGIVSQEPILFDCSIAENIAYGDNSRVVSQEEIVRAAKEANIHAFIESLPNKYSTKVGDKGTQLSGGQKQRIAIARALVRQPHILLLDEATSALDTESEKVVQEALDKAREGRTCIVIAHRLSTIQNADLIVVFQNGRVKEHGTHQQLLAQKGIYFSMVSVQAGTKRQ
Procedure: Brief Assay Description for the Measurement of Transepithelial Transport of Test Compounds Through LLC-MDR1 Monolayers
The purpose of this assay was to assess both the in vitro passive permeability of test compounds and their ability to be transported substrates of P-gp using LLC-PK1 cells stably transduced with MDR1 in a trans-well system. The positive control for transport was ^3H-digoxin (30 nM) and the positive control inhibitor was GF120918 (5 μM). The marker compound for low permeability was ^14C-Mannitol (1 μM). The test compound concentration was 1 μM.
The integrity of the cellular monolayer was assessed in each incubation well through the inclusion of the fluorescent, low permeability marker compound, Fluorescein.
In detail, LLC-MDR1 cells were seeded on 24-well cell culture inserts (Millicell®-PCF, 0.4 μm, 13 mm diameter, 0.7 cm^2) at 400,000 cells/cm^2. Cell culture medium consisted of Medium 199 supplemented with 10% Foetal Bovine Serum (FBS) and 100 U/ml Penicillin/streptomycin and was replaced the day after seeding and the day before the experiment. The transport experiment was performed 5 days after seeding. On the day of the experiment, solutions of the test compounds were applied to the apical or basolateral side of the monolayers to assess transport in the A to B and B to A directions, respectively. The medium used in the assay was (OPTI-MEM (1×) (GIBCO) with 1 w/v % Bovine Serum Albumin. Inserts were incubated at 37° C. in a humidified incubator containing 5% CO2. Samples from the acceptor and donor compartments were collected after an incubation time of 120 min, to assess the permeability and to allow estimation of the test compound recovery during the experiment, respectively. Transport experiments were performed in triplicate. Absolute test compound concentrations were measured using LC-MS/MS and quantified via a calibration curve.

recombinant BACE1 protein, sequence (P56817 46-501): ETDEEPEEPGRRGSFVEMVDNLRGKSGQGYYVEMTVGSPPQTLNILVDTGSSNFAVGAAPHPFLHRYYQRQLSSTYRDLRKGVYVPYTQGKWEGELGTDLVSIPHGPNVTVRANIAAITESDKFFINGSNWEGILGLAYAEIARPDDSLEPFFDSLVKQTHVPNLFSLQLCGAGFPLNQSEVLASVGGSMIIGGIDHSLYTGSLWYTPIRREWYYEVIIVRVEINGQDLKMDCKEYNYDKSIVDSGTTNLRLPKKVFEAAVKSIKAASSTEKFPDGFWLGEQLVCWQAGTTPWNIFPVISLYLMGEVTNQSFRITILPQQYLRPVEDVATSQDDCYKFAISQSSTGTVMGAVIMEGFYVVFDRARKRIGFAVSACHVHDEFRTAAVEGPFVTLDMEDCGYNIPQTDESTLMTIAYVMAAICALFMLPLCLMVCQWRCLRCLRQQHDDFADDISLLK

| Structure (SMILES) | Cellular αLisa assay in SKNBE2 cells Abetatotal pIC50 (Abeta total) | Cellular αLisa assay in SKNBE2 cells Abeta 42 pIC50 (Abeta 1-42) | IC50 [1] | IC50 (Abeta total) | IC50 (Abeta 1-42) | Papp A→B at 120 min, 1 μM (P-gp; pig, LLC-PK1) | Papp B→A at 120 min, 1 μM (P-gp; pig, LLC-PK1) | Aβ42 (% Ctrl)_Mean (Aβ42; p.o., 4 h) | Aβtotal (% Ctrl)_Mean (Aβtotal; p.o., 4 h) | melting point | further results |
| --- | --- | --- | --- | --- | --- | --- | --- | --- | --- | --- | --- |
| CC1(c2cc(-c3cncnc3)c(F)cc2F)COCC(N)=N1 (single isomer, unassigned) [Compound 55] | 6.99 | 6.89 | – | – | – | – | – | – | – | – | Biochemical FRET based assay pIC50 [1]: 5.55; Aβ42 (% Ctrl)_Mean (Aβ42; s.c., 4 h): 88 % Ctrl; Aβtotal (% Ctrl)_Mean (Aβtotal; s.c., 4 h): 87 % Ctrl; A to B (Apparent Permeability, Papp) (P-gp; LLC-MDR1 monolayers, 1 μM test compound, 120 minutes, apical to basolateral, absence of GF120918): 9.5 ×10⁻⁶ cm/s; B to A (Apparent Permeability, Papp) (P-gp; LLC-MDR1 monolayers, 1 μM test compound, 120 minutes, basolateral to apical): 34.4 ×10⁻⁶ cm/s; BA/AB (P-gp; LLC-MDR1 monolayers, ratio of B to A and A to B permeation rates): 3.6 |
| C[C@@]1(c2cc(-c3cncnc3)c(F)cc2F)N=C(N)CO[C@H]1F (single isomer, unassigned) [Compound 82, (S*,S*)-5-(2,4-difluoro-5-pyrimidin-5-ylphenyl)-6-fluoro-5-methyl-5,6-dihydro-2H-1,4-oxazin-3-amine] | – | – | 631 nM | 245 nM | 251 nM | 10.5 ×10⁻⁶ cm/s | 23.9 ×10⁻⁶ cm/s | – | – | – | Aβ42 (% Ctrl)_Mean (Aβ42; s.c., 2 h): 57 % Ctrl; Aβtotal (% Ctrl)_Mean (Aβtotal; s.c., 2 h): 44 % Ctrl; efflux ratio at 120 min, 1 μM (P-gp; pig, LLC-PK1, LLC-MDR1 monolayers, ratio of B to A and A to B permeation rates, read-out: BA/AB): 2.3 |
| CC1(c2cc(NC(=O)c3ncc(Cl)cc3Cl)ccc2F)N=C(N)COC1F (single isomer, unassigned) [Compound 126] | 8.09 | 8.06 | 36.3 nM | – | – | – | – | 26 % Ctrl | 31 % Ctrl | 94.6 °C | Aβ42 (% Ctrl)_Mean (Aβ42; s.c., 4 h): 27 % Ctrl; Aβtotal (% Ctrl)_Mean (Aβtotal; s.c., 4 h): 32 % Ctrl |
| CC1(c2cc(NC(=O)c3ccc(Cl)cn3)ccc2F)N=C(N)COC1F (single isomer, unassigned) [Compound 134] | 8.42 | 8.39 | – | – | – | 8.9 ×10⁻⁶ cm/s | 17.7 ×10⁻⁶ cm/s | 27 % Ctrl | 35 % Ctrl | – | – |
| COc1cnc(C(=O)Nc2ccc(F)c([C@@]3(C)N=C(N)CO[C@H]3C(F)(F)F)c2)cn1 [Compound 166, (2R,3R)—N-{3-[5-amino-3-methyl-2-(trifluoromethyl)-3,6-dihydro-2H-1,4-oxazin-3-yl]-4-fluorophenyl}-5-methoxypyrazine-2-carboxamide] | – | – | 50.1 nM | 12.3 nM | 12.6 nM | 13.7 ×10⁻⁶ cm/s | 13.6 ×10⁻⁶ cm/s | 50 % Ctrl | 43 % Ctrl | – | – |
| C[C@]1(c2cc(NC(=O)c3ncc(Cl)cc3Cl)ccc2F)N=C(N)CO[C@H]1C(F)(F)F [Compound 167] | – | – | 34.7 nM | 7.59 nM | 7.59 nM | – | – | – | – | 214.23 °C | Aβ42 (% Ctrl)_Mean (Aβ42; p.o., 2 h): 95 % Ctrl; Aβtotal (% Ctrl)_Mean (Aβtotal; p.o., 2 h): 78 % Ctrl |
| C[C@]1(c2cc(NC(=O)c3ccc(C#N)cn3)ccc2F)N=C(N)CO[C@H]1C(F)(F)F [Compound 169] | – | – | 56.2 nM | 6.76 nM | 6.92 nM | 10.5 ×10⁻⁶ cm/s | 19 ×10⁻⁶ cm/s | 38 % Ctrl | 39 % Ctrl | – | – |
| N#Cc1ccc(C(=O)Nc2cccc([C@@]3(C4CC4)N=C(N)CO[C@@]3(F)C(F)(F)F)c2)nc1 [Compound 199, (2S,3R)—N-{3-[5-amino-3-cyclopropyl-2-fluoro-2-(trifluoromethyl)-3,6-dihydro-2H-1,4-oxazin-3-yl]phenyl}-5-cyanopyridine-2-carboxamide] | – | – | 14.8 nM | 17 nM | 16.6 nM | – | – | – | – | 196.12 °C | Aβ42 (% Ctrl)_Mean (Aβ42; s.c., 2 h): 64 % Ctrl; Aβtotal (% Ctrl)_Mean (Aβtotal; s.c., 2 h): 45 % Ctrl |
| COc1cnc(C(=O)Nc2ccc(F)c([C@@]3(C4CC4)N=C(N)CO[C@@H]3F)c2)cn1 [Compound 216] | – | – | – | 631 nM | – | 12 ×10⁻⁶ cm/s | 12 ×10⁻⁶ cm/s | 45 % Ctrl | 39 % Ctrl | – | – |

Reference: patent US9828350B2, “5,6-dihydro-2H-[1,4]oxazin-3-yl-amine derivatives useful as inhibitors of beta-secretase (BACE)” (Janssen Pharmaceutica NV, priority 2010, dated 2017)
